A short description of data set [1]: Solubility observation of the isolated compound. The format is physicochemical.
For the next data set, the target named is T1, COX-1 (Ovis aries, UniProt P05979).
T1 construct: purchased Cayman Chemical Batch No.: A4570
T1 sequence (P05979 25-600): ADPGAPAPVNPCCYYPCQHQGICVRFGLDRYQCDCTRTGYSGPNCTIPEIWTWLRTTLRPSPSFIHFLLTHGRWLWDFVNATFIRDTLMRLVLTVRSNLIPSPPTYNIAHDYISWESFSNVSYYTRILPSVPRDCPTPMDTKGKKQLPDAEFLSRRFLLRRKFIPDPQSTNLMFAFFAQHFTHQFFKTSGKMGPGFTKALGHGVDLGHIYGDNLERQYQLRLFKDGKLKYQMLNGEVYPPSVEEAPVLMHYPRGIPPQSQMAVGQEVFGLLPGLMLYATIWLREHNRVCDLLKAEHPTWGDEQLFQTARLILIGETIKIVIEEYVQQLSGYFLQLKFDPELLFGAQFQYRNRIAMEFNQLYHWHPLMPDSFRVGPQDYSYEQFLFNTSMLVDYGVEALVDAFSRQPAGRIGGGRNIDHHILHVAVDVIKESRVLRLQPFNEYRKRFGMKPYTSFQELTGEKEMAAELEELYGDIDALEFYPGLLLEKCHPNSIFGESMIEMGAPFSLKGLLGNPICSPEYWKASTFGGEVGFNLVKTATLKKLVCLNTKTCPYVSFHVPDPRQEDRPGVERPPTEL
Kind of data set: COX-1 inhibitory assay. The format is biochemical, sheep. As for the experimental part:
The inhibitory potential of synthesized MAK01 was evaluated using a COX-1 inhibitory assay. This utilized a solution of COX-1 enzymes derived from sheep, adhering to previous protocols. The COX-1 enzyme solution was prepared with a specific concentration. The concentration was set at 0.7–0.8 μg per 10 μL. The activation of the enzymes was achieved by taking and mixing 10 μL and 50 μL of the […] enzyme solution and a co-factor solution, respectively. This mixture was then cooled at 4 °C in an ice bucket for a duration of five to six minutes. As for the preparation of the co-factor solution, it began with 0.1 M Tris buffer, which was maintained at a pH of 8.0. To this buffer, 1 mM of hematin was added. Next, 0.9 mM of glutathione was mixed into the solution. Further, the solution was enriched with 0.24 mM of TMPD. After the co-factor solution, specific test samples were prepared. These samples were of a certain concentration and diluted to 20 μL in volume. These test samples were then mixed with 60 μL of the […] enzyme solution. Once the mixture was prepared, it was left undisturbed at room temperature. The duration for this standing period ranged from five to ten minutes. Subsequent to this resting period, 20 μL of 30 mM arachidonic acid was added. This addition served to initiate the reaction within the solution. Post initiation of the reaction, the solution underwent an incubation period. The solution was kept at a temperature of 37 °C. The incubation was allowed to continue for a total of 15 min. The final solution underwent an absorbance measurement. This was performed using a UV–visible spectrophotometer. Specifically, the measurement was made at a 570 nm wavelength. Similarly, the test samples in various concentrations were processed and analyzed using the same procedure. Using the absorbance value over time, the inhibition of the COX-1 enzyme was quantified.
Using the following formulation, the percent inhibition for each sample was calculated. % Inhibition=Abs. test sample−Abs. background/Abs. solvent blank−Abs. background×100

For orientation: IC50 means the point on the concentration scale where inhibition reaches its midpoint. As usually defined, the inhibition is the change of the read-out against control, counted positive when it falls. Take `CCOC(=O)C(C)(C)C1CC(=O)N(c2ccccc2)C1=O` (stereo not drawn) [MAK01, ethyl 2-(2,5-dioxo-1-phenylpyrrolidin-3-yl)-2-methylpropanoate]: the “Solubility in organic solvents” value in data set [1] is listed as “soluble in polar organic solvents”. For the same compound, the IC50 against COX-1 is 1090 µM. Further, the COX-1 percent inhibition turned out to be 32% on COX-1 (62.50 μg/mL); 38% on COX-1 (125 μg/mL); 46% on COX-1 (250 μg/mL); 56% at COX-1 (500 μg/mL); 65% at COX-1 (1000 μg/mL). The inhibition at 62.5 µg/mL on COX-1 (62.50 μg/mL, read-out: COX-1 percent inhibition) was determined as 31.5%. Moreover, at COX-1 (125 μg/mL, read-out: COX-1 percent inhibition), the inhibition at 125 µg/mL was 37.5%. Besides, at COX-1 (250 μg/mL, read-out: COX-1 percent inhibition), the inhibition at 250 µg/mL worked out at 45.8%. The inhibition at 500 µg/mL on COX-1 (500 μg/mL, read-out: COX-1 percent inhibition) was 56.5%. The inhibition at 1000 µg/mL on COX-1 (1000 μg/mL, read-out: COX-1 percent inhibition) came to 64.8%.

For the origin of these results see PMC11597207, “Synthesis and Anti-Inflammatory and Analgesic Potentials of Ethyl 2-(2,5-Dioxo-1-Phenylpyrrolidin-3-yl)-2-Methylpropanoate” (Pharmaceuticals, 2024).
